Results on 23 molecules are retold here after US10202368B2, “CXCR7 receptor modulators” (IDORSIA PHARMACEUTICALS LTD, priority 2014, dated 2019).

The test deals with CXCR7 (Homo sapiens (Human), UniProt P25106). Put plainly: PathHunter CHO-K1 CXCR7 β-arrestin assay (agonistic activity). Format: cell-based. As to conditions: β-arrestin recruitment in PathHunter CHO-K1 CXCR7 β-arrestin cells, 90 minutes at 37° C., geometric mean values. The protocol:
The CXCI12 receptor and CXCR7 agonistic activities of the compounds of formula (I) are determined in accordance with the following experimental method.
The assay is using the PathHunter™ CHO-K1 CXCR7 β-arrestin cell line from DiscoverX. The system is based on the Enzyme Fragment Complementation Technology. Two complementing fragments of the β-galactosidase enzyme are expressed within stably transfected cells. The larger portion of β-gal, termed EA for Enzyme Acceptor, is fused to the C-terminus of b-arrestin 2. The smaller fragment, termed ProLink™ tag, is fused to CXCR7 at the C-terminus. Upon activation, b-arrestin is recruited which forces the interaction of ProLink and EA, allowing complementation of the two fragments of b-gal and the formation of a functional enzyme which is capable of hydrolysing the substrate and generating a chemiluminescent signal.
CHO-K1 CXCR7 β-arrestin cells are detached from culture dishes with a cell dissociation buffer (Invitrogen, #13151-014) and collected in growing medium (F12 HAMS 90% (v/v)/FCS 10% (v/v), Penicillin/streptomycin 1% (v/v)). 5000 cells per well (in 20 μl) are seeded in a 384 well plate (white-walled, clear bottom; BD Falcon #353274). The plate is incubated at 37° C./5% CO2 for 24 hours. Medium is then replaced by 20 μl OPTIMEM (Invitrogen #31985) for 3 to 4 hours. Test compounds are dissolved at 10 mM in DMSO and serially diluted in DMSO to 200× of the final concentration for dose response curves. Compounds are then diluted 1:33.3 in HBSS1X. 5 μl/well of HBSS1X/20 mM HEPES/0.2% BSA are added to the assay plate followed by addition of 5 μl/well of diluted compounds. CXCL12 (Peprotech #300-28A) may be used as a reference agonist. The plate is incubated for 90 minutes at 37° C. 12 μl of detection reagent (Path Hunter Detection Kit, DiscoveRx, #93-0001) is transferred to the assay plate and to the plate is incubated for 1 hour at room temperature. Luminescent signal is read in a microplate reader (FLUOstar Optima, bmg). The calculated EC50 values may fluctuate depending on the daily cellular assay performance. Fluctuations of this kind are known to those skilled in the art. Average EC50 values from several measurements are given as geometric mean values.
(Arrestin recruitment assays detect the binding of arrestin to an activated receptor.)

CXCR7, sequence (P25106 whole entry): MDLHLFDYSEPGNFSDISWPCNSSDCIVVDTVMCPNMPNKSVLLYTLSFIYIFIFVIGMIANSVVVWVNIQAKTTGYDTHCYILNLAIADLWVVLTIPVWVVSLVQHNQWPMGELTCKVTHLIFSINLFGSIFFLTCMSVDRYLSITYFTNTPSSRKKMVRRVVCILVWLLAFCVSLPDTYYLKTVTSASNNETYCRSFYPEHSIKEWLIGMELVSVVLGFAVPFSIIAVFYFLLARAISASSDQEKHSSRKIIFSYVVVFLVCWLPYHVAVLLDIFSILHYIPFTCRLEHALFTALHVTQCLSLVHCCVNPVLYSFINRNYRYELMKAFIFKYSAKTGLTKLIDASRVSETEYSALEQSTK
CXCR7, sequence (P32121 whole entry partner): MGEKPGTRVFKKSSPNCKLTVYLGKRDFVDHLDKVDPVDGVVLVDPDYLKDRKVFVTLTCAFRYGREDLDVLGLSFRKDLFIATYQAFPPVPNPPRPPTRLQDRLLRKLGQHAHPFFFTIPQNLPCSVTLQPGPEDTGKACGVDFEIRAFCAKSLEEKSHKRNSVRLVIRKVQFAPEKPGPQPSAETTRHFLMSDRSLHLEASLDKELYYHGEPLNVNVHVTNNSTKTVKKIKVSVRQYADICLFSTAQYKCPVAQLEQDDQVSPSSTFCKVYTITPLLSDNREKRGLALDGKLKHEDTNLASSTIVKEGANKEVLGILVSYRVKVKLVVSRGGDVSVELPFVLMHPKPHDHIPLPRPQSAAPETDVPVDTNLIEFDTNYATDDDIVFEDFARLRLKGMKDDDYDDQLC

Take `CCN1CCN(CC)c2c(NCC(=O)N(CCN3CCCC3)Cc3ncccc3C(F)(F)F)cccc2C1=O` [Example 48, 2-(1,4-Diethyl-5-oxo-2,3,4,5-tetrahydro-1H-benzo[e][1,4]diazepin-9-ylamino)-N-(2-pyrrolidin-1-yl-ethyl)-N-(3-trifluoromethyl-pyridin-2-ylmethyl)-acetamide]: the EC50 (usually the midpoint of the concentration-response curve) was 47 nM.

For the molecule `CN(C)CCN(Cc1ccccc1C(F)(F)F)C(=O)CNc1cccc2c1N(C)CCN(CC1CC1)C2` [Example 49, 2-(4-Cyclopropylmethyl-1-methyl-2,3,4,5-tetrahydro-1H-benzo[e][1,4]diazepin-9-ylamino)-N-(2-dimethylamino-ethyl)-N-(2-trifluoromethyl-benzyl)-acetamide], the EC50 came out at 2 nM.

In turn, `CC(C)N(CCN(Cc1ccccc1C(F)(F)F)C(=O)CNc1cccc2c1N(C)CCN(CC1CC1)C2)C(=O)OC(C)(C)C` [Example 50, {2-[[2-(4-Cyclopropylmethyl-1-methyl-2,3,4,5-tetrahydro-1H-benzo[e][1,4]diazepin-9-ylamino)-acetyl]-(2-trifluoromethyl-benzyl)-amino]-ethyl}-isopropyl-carbamic acid tert-butyl ester] returned an EC50 of 340 nM.

The molecule `CN1CCN(CC2CC2)Cc2cccc(NCC(=O)N(CCN3CCCC3)Cc3ncccc3C(F)(F)F)c21` [Example 51, 2-(4-Cyclopropylmethyl-1-methyl-2,3,4,5-tetrahydro-1H-benzo[e][1,4]diazepin-9-ylamino)-N-(2-pyrrolidin-1-yl-ethyl)-N-(3-trifluoromethyl-pyridin-2-ylmethyl)-acetamide] displayed a 50% effective concentration (EC50) of 1 nM. Compared with the last molecule, the EC50 is about 340-fold lower.

`CC(C)NCCN(Cc1ccccc1C(F)(F)F)C(=O)CNc1cccc2c1N(C)CCN(CC1CC1)C2` [Example 52, 2-(4-Cyclopropylmethyl-1-methyl-2,3,4,5-tetrahydro-1H-benzo[e][1,4]diazepin-9-ylamino)-N-(2-isopropylamino-ethyl)-N-(2-trifluoromethyl-benzyl)-acetamide] yielded an EC50 of 1 nM.

As for `CCN1CCOc2c(NCC(=O)N(CCNC(C)C)Cc3ccccc3C(F)(F)F)cccc2C1=O` [Example 56, 2-(4-Ethyl-5-oxo-2,3,4,5-tetrahydro-benzo[f][1,4]oxazepin-9-ylamino)-N-(2-isopropylamino-ethyl)-N-(2-trifluoromethyl-benzyl)-acetamide], the response was half-maximal at 16 nM (EC50).

As to `CCN1CCOc2c(NCC(=O)N(CCN3CCCC3)Cc3ncccc3C(F)(F)F)cccc2C1=O` [Example 57, 2-(4-Ethyl-5-oxo-2,3,4,5-tetrahydro-benzo[f][1,4]oxazepin-9-ylamino)-N-(2-pyrrolidin-1-yl-ethyl)-N-(3-trifluoromethyl-pyridin-2-ylmethyl)-acetamide], a half-maximal response (EC50) required 60 nM.

The molecule `CCN1CCOc2c(NCC(=O)N(CCN(C)C)Cc3ncccc3C(F)(F)F)cccc2C1=O` [Example 58, N-(2-Dimethylamino-ethyl)-2-(4-ethyl-5-oxo-2,3,4,5-tetrahydro-benzo[f][1,4]oxazepin-9-ylamino)-N-(3-trifluoromethyl-pyridin-2-ylmethyl)-acetamide] displayed a concentration for a half-maximal effect (EC50) of 74 nM. The EC50 values of the last two molecules are within 1.5-fold of each other.

Take `CCN1CCOc2c(NCC(=O)N(CCN3CCCC3)Cc3ncccc3Cl)cccc2C1=O` [Example 59, N-(3-Chloro-pyridin-2-ylmethyl)-2-(4-ethyl-5-oxo-2,3,4,5-tetrahydro-benzo[f][1,4]oxazepin-9-ylamino)-N-(2-pyrrolidin-1-yl-ethyl)-acetamide]: the EC50 was 260 nM.

With `CCN1CCOc2c(NCC(=O)N(CCN(C)C)Cc3ncccc3Cl)cccc2C1=O` [Example 60, N-(3-Chloro-pyridin-2-ylmethyl)-N-(2-dimethylamino-ethyl)-2-(4-ethyl-5-oxo-2,3,4,5-tetrahydro-benzo[f][1,4]oxazepin-9-ylamino)-acetamide], a half-maximal effect (EC50) was put at 260 nM.

Molecule `CN(C)CCN(Cc1ccccc1C(F)(F)F)C(=O)CNc1cccc2c1OCCN(CC1CC1)C2=O` [Example 61, 2-(4-Cyclopropylmethyl-5-oxo-2,3,4,5-tetrahydro-benzo[f][1,4]oxazepin-9-ylamino)-N-(2-dimethylamino-ethyl)-N-(2-trifluoromethyl-benzyl)-acetamide] returned an EC50 of 9 nM.

For `CC(C)NCCN(Cc1ccccc1C(F)(F)F)C(=O)CNc1cccc2c1OCCN(CC1CC1)C2=O` [Example 62, 2-(4-Cyclopropylmethyl-5-oxo-2,3,4,5-tetrahydro-benzo[f][1,4]oxazepin-9-ylamino)-N-(2-isopropylamino-ethyl)-N-(2-trifluoromethyl-benzyl)-acetamide], the 50% effective concentration (EC50) turned out to be 5 nM.

For `CC(C)(C)NCCN(Cc1ccccc1C(F)(F)F)C(=O)CNc1cccc2c1OCCN(CC1CC1)C2=O` [Example 63, N-(2-tert-Butylamino-ethyl)-2-(4-cyclopropylmethyl-5-oxo-2,3,4,5-tetrahydro-benzo[f][1,4]oxazepin-9-ylamino)-N-(2-trifluoromethyl-benzyl)-acetamide], the concentration for a half-maximal effect (EC50) was found to be 2 nM.

In turn, `O=C(CNc1cccc2c1OCCN(CC1CC1)C2=O)N(CCN1CCCC1)Cc1ncccc1C(F)(F)F` [Example 64, 2-(4-Cyclopropylmethyl-5-oxo-2,3,4,5-tetrahydro-benzo[f][1,4]oxazepin-9-ylamino)-N-(2-pyrrolidin-1-yl-ethyl)-N-(3-trifluoromethyl-pyridin-2-ylmethyl)-acetamide] showed an EC50 of 7 nM.

For `O=C(CNc1cccc2c1OCC(=O)N(CC1CC1)C2)N(CCN1CCCC1)Cc1ncccc1C(F)(F)F` [Example 65, 2-(4-cyclopropylmethyl-3-oxo-2,3,4,5-tetrahydro-benzo[f][1,4]oxazepin-9-ylamino)-N-(2-pyrrolidin-1-yl-ethyl)-N-(3-trifluoromethyl-pyridin-2-ylmethyl)-acetamide], the response was half-maximal at 18 nM (EC50).

In the case of `CC(C)(C)NCCN(Cc1ccccc1C(F)(F)F)C(=O)CNc1cccc2c1OCC(=O)N(CC1CC1)C2` [Example 66, N-(2-tert-butylamino-ethyl)-2-(4-cyclopropylmethyl-3-oxo-2,3,4,5-tetrahydro-benzo[f][1,4]oxazepin-9-ylamino)-N-(2-trifluoromethyl-benzyl)-acetamide], the EC50 was 18 nM.

The molecule `CN(C)CCN(Cc1ccccc1C(F)(F)F)C(=O)CNc1cccc2c1OCC(=O)N(CC1CC1)C2` [Example 67, 2-(4-Cyclopropylmethyl-3-oxo-2,3,4,5-tetrahydro-benzo[f][1,4]oxazepin-9-ylamino)-N-(2-dimethylamino-ethyl)-N-(2-trifluoromethyl-benzyl)-acetamide] came in with a concentration giving a half-maximal response (EC50) of 37 nM.

With `CC(C)NCCN(Cc1ccccc1C(F)(F)F)C(=O)CNc1cccc2c1OCC(=O)N(CC1CC1)C2` [Example 68, 2-(4-Cyclopropylmethyl-3-oxo-2,3,4,5-tetrahydro-benzo[f][1,4]oxazepin-9-ylamino)-N-(2-isopropylamino-ethyl)-N-(2-trifluoromethyl-benzyl)-acetamide], the EC50 was 15 nM.

In the case of `CCN1CCOc2c(cccc2NCC(=O)N(CCN(C(=O)OC(C)(C)C)C(C)C)Cc2ccccc2C(F)(F)F)C1` [Example 69, {2-[[2-(4-Ethyl-2,3,4,5-tetrahydro-benzo[f][1,4]oxazepin-9-ylamino)-acetyl]-(2-trifluoromethyl-benzyl)-amino]-ethyl}-isopropyl-carbamic acid tert-butyl ester], it took 430 nM to reach a half-maximal effect (EC50).

For the molecule `CCN1CCOc2c(cccc2NCC(=O)N(CCNC(C)(C)C)Cc2ccccc2C(F)(F)F)C1` [Example 70, N-(2-tert-Butylamino-ethyl)-2-(4-ethyl-2,3,4,5-tetrahydro-benzo[f][1,4]oxazepin-9-ylamino)-N-(2-trifluoromethyl-benzyl)-acetamide], the midpoint of the response, the EC50, lay at 4 nM.

As for `CCN1CCOc2c(cccc2NCC(=O)N(CCNC(C)C)Cc2ccccc2C(F)(F)F)C1` [Example 71, 2-(4-Ethyl-2,3,4,5-tetrahydro-benzo[f][1,4]oxazepin-9-ylamino)-N-(2-isopropylamino-ethyl)-N-(2-trifluoromethyl-benzyl)-acetamide], the midpoint of the response, the EC50, lay at 4 nM.

`CCN1CCOc2c(cccc2NCC(=O)N(CCN(C)C)Cc2ncccc2C(F)(F)F)C1` [Example 72, N-(2-Dimethylamino-ethyl)-2-(4-ethyl-2,3,4,5-tetrahydro-benzo[f][1,4]oxazepin-9-ylamino)-N-(3-trifluoromethyl-pyridin-2-ylmethyl)-acetamide] returned a half-maximal effective concentration (EC50) of 6 nM.

Molecule `CCN1CCOc2c(cccc2NCC(=O)N(CCN(C)C)Cc2ncccc2C)C1` [Example 73, N-(2-Dimethylamino-ethyl)-2-(4-ethyl-2,3,4,5-tetrahydro-benzo[f][1,4]oxazepin-9-ylamino)-N-(3-methyl-pyridin-2-ylmethyl)-acetamide] displayed an EC50 of 59 nM. This EC50 lies about 9.8-fold higher than the previous one.
